# Measured values as given in patent US7074779B2, “Estrieno[3,2-b]/[3,4-c]pyrrole derivatives useful as modulators of the estrogen receptors” (Ortho-McNeil Pharmaceutical, Inc., priority 2003, dated 2006).
# Target: T1, human estrogen receptor β (Homo sapiens, UniProt Q92731)
# T1 construct: purchased Panvera
# Experiment: Estrogen Receptor β Fluorescence Polarization Assay
# Settings: displacement of Fluormone ES2; read-out: ERβ Binding IC50
# Source text: This assay monitors binding of a fluorescent analog of estrogen (Fluormone ES2, Panvera) to the estrogen receptor. Plates were read in a fluorometer that can be set to polarization mode. A decrease in […] relative to vehicle control is an indication of binding of a compound to the receptor. It is crucial to avoid introduction of air bubbles into the reaction in each well of the 96 well plate throughout this procedure. (Bubbles on the surface of the reaction disrupt light flow, affecting the polarization reading.) However, it is also crucial to effectively mix the reaction components upon addition to the well. On ice, a 2× standard mixture of Assay Buffer (Panvera), 10 nM DTT and 40 nM ES2 was prepared. On ice, a 2× reaction mixture of Assay Buffer (Panvera), and 20 nM human estrogen receptor β (hER-β, Panvera) and 40 nM ES2 was also prepared. Dilutions-of test compound were prepared in 30% (v/v) dimethyl sulfoxide/50 mM HEPES, pH 7.5. At this point, the dilutions were 40× the final required concentration. The standard mixture at 50 μL was then added to each well. The reaction mixture at 48 μL was added to all wells. The compound dilution at 2.5 μL was added to the appropriate wells. The reaction mixtures were mixed using a manual pipette, a roll of aluminum foil adhesive cover was placed on the plate and the plate incubated at room temperature for 1 hour. Each well on the plate was then read in an LjL Analyst with an excitation wavelength of […] and an emission wavelength of 538.
# T1 sequence (Q92731 whole entry): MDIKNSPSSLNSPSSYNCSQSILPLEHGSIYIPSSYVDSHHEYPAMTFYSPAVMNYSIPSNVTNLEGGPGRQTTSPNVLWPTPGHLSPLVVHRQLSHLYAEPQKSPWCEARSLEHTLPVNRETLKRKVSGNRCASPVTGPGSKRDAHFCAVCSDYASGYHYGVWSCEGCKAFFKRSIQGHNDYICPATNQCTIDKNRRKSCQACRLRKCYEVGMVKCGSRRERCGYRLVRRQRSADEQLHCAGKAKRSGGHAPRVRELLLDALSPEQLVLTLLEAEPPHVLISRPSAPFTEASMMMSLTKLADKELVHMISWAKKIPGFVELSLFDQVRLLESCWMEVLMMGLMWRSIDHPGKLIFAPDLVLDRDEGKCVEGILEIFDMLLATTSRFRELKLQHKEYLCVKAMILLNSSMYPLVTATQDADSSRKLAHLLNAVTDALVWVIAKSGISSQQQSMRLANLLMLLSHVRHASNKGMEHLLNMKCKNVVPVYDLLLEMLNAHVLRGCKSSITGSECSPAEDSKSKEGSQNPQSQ
row,Structure (SMILES),IC50 [nM]
1,C[C@]12CCC3c4cc5cc[nH]c5cc4CCC3C1CCC2=O (some centres unmarked) [Compound 3],> 10000
2,C[C@]12CCC3c4ccc5[nH]ccc5c4CCC3C1CCC2=O (some centres unmarked) [Compound 4],610
3,C[C@]12CCC3c4ccc5[nH]ccc5c4CCC3C1CC[C@@H]2O (some centres unmarked) [Compound 6],91
4,C[C@]12CCC3c4cc5cc[nH]c5cc4CCC3C1CC[C@@H]2O (some centres unmarked) [Compound 8],150
5,C[C@]12CCC3c4cc5cc[nH]c5cc4CCC3C1CC[C@@H]2OC(=O)CCC(=O)O (some centres unmarked) [Compound 13],610
